Experimental data reported in US20070154452A1, “Therapeutic agent for pancreas cancer” (ORIENT CANCER THERAPY, priority 2004, published 2007).
Counter-ions that a name gives are not always drawn.

Key:
Assay type in all cases: in vivo, human
[1] = system: Th1/Th2; assay: Th1/Th2 before and after administration of Gemzar; settings: pancreas cancer, 8 cases, before and after Gemzar 1000 mg/mm^2 for three weeks then a week break, FIG. 3
Source text: Gemcitabine hydrochloride (Gemzar™) is an anticancer agent developed by Eli Lilly and Company. This Gemzar was approved to apply for insurance for pancreas cancer in April in 2001. […] Inhibitory effects were also not observed in the ratios of NK cells (8 cases), perforin-producing NK cells (8 cases), NKT cells (8 cases) and perforin-producing NKT cells (8 cases) to total lymphocytes (FIG. 4).

[2] = system: IFNγ; assay: IFNγ production of the patients' peripheral blood monocyte fraction (EIA); set-up: dose or concentration left out as unconfirmed; settings: pancreas cancer, 8 cases, before and after Gemzar for three weeks then a week break, FIG. 3
Method: Firstly, a monocyte fraction is separated from blood for preparation. After heparinized peripheral blood is diluted twofold with Phosphate Buffer Saline (PBS) and mixed, the mixture is overlaid on Ficoll-Conray solution (specific gravity 1.077), centrifuged at […] for 20 minutes to collect a monocyte fraction. After washing it, RPMI-1640 medium added with 10% fetal bovine serum (FBS) is added and prepared such that the cell number becomes 1×10^6. Into 200 μl of the obtained cell suspension, Phytohemagglutinin (supplied by DIFCO) is added into a concentration of 20 μg/ml, then cultured it in a 96-well microplate in the presence of 5% CO2 at 37° C. for 24 hours to obtain a sample for measuring two kinds of cytokines in the cultured cell solution. The measurement of IFNγ was conducted by enzyme immunoassay (EIA method) using […] kit from BioSource Europe S. In practice, into a each well of a 96-well microplate, 50 μl of standard or the twofold dilution of prepared sample described above was dispensed, then 50 μl of anti-IFNγ antibody labeled with HRP was dispensed, and further allowed to react for 2 hours at room temperature with shaking. […] The amount of IFNγ is expressed as IU/ml.

[3] = system: NK cells and NKT cells; assay: Ratios of NK, NKT and perforin-producing cells to total lymphocytes (flow cytometry); settings: pancreas cancer, 8 cases, before and after Gemzar, FIG. 4
Method: The measurement of NKT cells having NKR-P1 can be conducted by measuring cell surface antigens (CD3 and CD161 ) which are specifically presented on the NKT cell surface. In particular, lymphocytes in peripheral blood are tested for cells of CD3 positive and CD161 positive [CD3 (+) and CD161 (+)]. Thus, CD3 and CD161 which are cell surface antigens on NKT cell are measured by Two Color assay which uses monoclonal antibodies and flow cytometry. Here, activated NKT cells mean that the ratio of NKT [CD3 (+) and CD161 (+)] cells in lymphocytes is 10% or more, and more preferably 16% or more. The ability of activating NKT cell means the function which can increase NKT cell ratio by 10% or more, and more preferably 16% or more, or which can further increase NKT cell ratio more than that before administering a certain substance. Likewise, [CD3 (−) and CD161 (+) ] means to assay for CD3 negative and CD161 positive cells. This method is useful in measurement of NK cells. In addition, CD8 (+) means to assay for CD8 positive cells. This method is useful in measurement of CTL activity. In the Examples, bloods from cancer patients were used, and cells in blood were separated into positive and negative for cell surface antigens, CD3, CD161 and CD8, and each cell ratio was measured by Two Color assay using flow cytometry following a conventional manner. At this time, monoclonal antibodies used against CD3 , CD161 and CD8 were supplied by Coulter or Becton & Dickinson respectively. For lymphocytes in peripheral blood, two of CD3 , CD161 and CD8 of cell surface antigens and perforin are measured by Three Color assay using flow cytometry following a conventional manner. Specifically, into a collected blood, a fixative solution is added to fix cells, then after adding a membrane permeabilizer, an anti-perforin antibody (supplied by Pharmingen) is added for reaction, further secondary antibody labeled with PRE-Cy5 (from DAKO) is added for reaction, then anti-CD3-PE (Coulter 6604627) antibody and anti-CD161-FITC (B-D) antibody are added for reaction, thereafter subjected to measurement by flow cytometry. They were abbreviated as P or PER in figures and tables.

[4] = system: IL-12; assay: IL-12 production of the patients' peripheral blood monocyte fraction (ELISA); settings: pancreas cancer, 8 cases, before and after Gemzar 1000 mg/mm^2 for three weeks then a week break, FIG. 3
Method: Firstly, a monocyte fraction is separated from blood for preparation. After heparinized peripheral blood is diluted twofold with Phosphate Buffer Saline (PBS) and mixed, the mixture is overlaid on Ficoll-Conray solution (specific gravity 1.077), centrifuged at […] for 20 minutes to collect a monocyte fraction. After washing it, RPMI-1640 medium added with 10% fetal bovine serum (FBS) is added and prepared such that the cell number becomes 1×10^6. Into 200 μl of the obtained cell suspension, Phytohemagglutinin (supplied by DIFCO) is added into a concentration of 20 μg/ml, then cultured it in a 96-well microplate in the presence of 5% CO2 at 37° C. for 24 hours to obtain a sample for measuring two kinds of cytokines in the cultured cell solution. To measure the amount of IL-12, a measuring kit based on enzyme immunoassay (ELISA) available from, for example, R&D SYSTEMS and MBL is used, though well known clinical and biochemical examinations can be used. Herein, a measuring kit supplied by R&D SYSTEMS was used. In practice, into each well of a 96-well microplate, 50 μl of measuring diluent of Assay Diluent RD1F, and 200 μl of standard or sample prepared from the preparation method for measuring cytokines described above were dispensed, and then allowed it to stand and react at room temperature for 2 hours. […] The amount of IL-12 is expressed as pg/ml. […]

Nc1ccn([C@@H]2O[C@H](CO)[C@@H](O)C2(F)F)c(=O)n1 [Gemzar, gemcitabine hydrochloride]
not observed: effects inhibiting cytokines: Th1/Th2 [1] | effects inhibiting cytokines: IFNγ [2] | inhibitory effects on ratio of NK cells to total lymphocytes [3] | inhibitory effects on ratio of NKT cells to total lymphocytes [3] | inhibitory effects on ratio of perforin-producing NK cells to total lymphocytes [3] | inhibitory effects on ratio of perforin-producing NKT cells to total lymphocytes [3] | effects inhibiting cytokines: IL-12 [4]
